# Source: patent US20100016293A1, “Quinazolines and Related Heterocyclic Compounds, and Their Therapeutic Use” (priority 2006, published 2010)
# pKi: −log10 of the molar value.
# Target: T1, human H4 receptor (Homo sapiens, UniProt Q9H3N8)
# T1 construct: expressed in transfected cells; host or cells: HEK 293T cells, transient transfection with polyethyleneimine
# Assay: Radioligand displacement studies at the human H4 receptor ([3H]histamine)
# Format: binding
# Conditions: [3H]histamine displacement, membranes of HEK 293T cells transfected with human H4R, 1 hour at 22° C.
# Procedure: Radioligand displacement studies at the human H4 receptor were conducted. […] Approximately 4 million cells were seeded in a 10-cm dish and cultured overnight before transfection. For transfection of each dish of cells, the transfection mixture was prepared in 1 ml serum-free DMEM and contained 5 μg of human H4R receptor plasmid and 15 μl of 1 mg/ml 25 kDa linear polyethyleneimine (Polyscience, Inc., USA). The mixture was incubated for 10-15 minutes at room temperature before it was added into the monoloyer cell culture loaded with 5 ml fresh cell culture medium. Two days after transfection the cells were washed with PBS containing 1 mM EDTA, collected as pellet by centrifuging, and stored at −20° C. until use.
# For the radioligand binding study, pellets of transfected cells were homogenized in H4R binding buffer (100 mM Tris-HCl, pH 7.4). For displacement binding assays, the membranes were typically incubated with 10^−4 to 10^−11 M of ligands (stock concentration was 10 mM 1 DMSO) in the presence of [^3H]histamine (Perkin-Elmer Life Science, Inc., USA) in a total volume of 200 μl. The reaction mixtures were incubated for 1 hour at room temperature (22° C.), and harvested on 96-well glass fiber C plates that were pretreated with 0.3% 750 kDa PEI. The binding assay data were analyzed using Prism 4.0 (Graphpad Software Inc., USA).
# T1 sequence (Q9H3N8 whole entry): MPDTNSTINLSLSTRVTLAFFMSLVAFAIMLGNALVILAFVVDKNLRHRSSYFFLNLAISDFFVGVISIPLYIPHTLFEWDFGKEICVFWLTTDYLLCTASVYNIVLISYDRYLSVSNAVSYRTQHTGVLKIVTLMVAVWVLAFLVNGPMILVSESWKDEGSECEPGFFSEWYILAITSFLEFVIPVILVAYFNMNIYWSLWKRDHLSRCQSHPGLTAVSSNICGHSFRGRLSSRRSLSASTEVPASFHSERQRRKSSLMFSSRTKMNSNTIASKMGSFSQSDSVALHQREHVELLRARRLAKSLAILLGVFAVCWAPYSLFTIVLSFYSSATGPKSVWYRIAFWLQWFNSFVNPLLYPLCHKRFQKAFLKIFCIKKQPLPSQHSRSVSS
row,SMILES,pKi
1,"CN1CCN(c2nc(NCc3ccc(N)cc3)c3cc(Cl)ccc3n2)CC1 [VUF10509, N-(4-aminobenzyl)-6-chloro-2-(4-methylpiperazin-1-yl)quinazolin-4-amine]",> 6.00
2,"CN1CCN(c2ccc3cc(Cl)ccc3n2)CC1 [VUF6959, 6-Chloro-2-(4-methyl-piperazinyl)-quinoline]",> 6.00
3,"CCOC(=O)CNc1nc(N2CCN(C)CC2)nc2ccc(Cl)cc12 [VUF10456, Ethyl 2-(6-chloro-2-(4-methylpiperazin-1-yl)quinazolin-4-ylamino)acetate]",> 6.00
4,"CN1CCN(c2nc(NCc3ccc(C#N)cc3)c3cc(Cl)ccc3n2)CC1 [VUF10553, 4-((6-Chloro-2-(4-methylpiperazin-1-yl)quinazolin-4-ylamino)methyl)benzonitrile]",> 6.00
5,"CN1CCN(c2nc(NCCc3ccc([N+](=O)[O-])cc3)c3cc(Cl)ccc3n2)CC1 [VUF10506, 6-Chloro-2-(4-methylpiperazin-1-yl)-N-(4-nitrophenethyl)quinazolin-4-amine]",> 6.00
6,"CN1CCN(c2nc(NCc3ccc(F)cc3)c3cc(Cl)ccc3n2)CC1 [VUF10513, 6-Chloro-N-(4-fluorobenzyl)-2-(4-methylpiperazin-1-yl)quinazolin-4-amine]",> 6.00
7,"COc1ccc(CNc2nc(N3CCN(C)CC3)nc3ccc(Cl)cc23)cc1 [VUF10505, 6-Chloro-N-(4-methoxybenzyl)-2-(4-methylpiperazin-1-yl)quinazolin-4-amine]",> 6.00
